Assay results reported in patent publication US20030203963A1, “Antimicrobial agent” (priority 2001, published 2003).

Columns and labels:
Y. enterocolitica S16 = test: Bioscreen growth inhibition test; format: cell-based, Yersinia enterocolitica; settings: BS010510, 24 h/30, APP20010213
Protocol: (§1) For broth cultures and Bioscreen testing most bacteria were grown in Brain Heart Infusion (BHI, Oxoid, pH 7.4). Lactobacillus sake A10 was grown in de Man, Rogosa, Sharpe medium ([…], Oxoid). Yeasts were grown in Sabouraud Liquid medium (SLM, Oxoid). Most bacteria were cultured at 30° C. Lactic acid bacteria were grown on solid medium in enriched CO2 atmosphere. Clostridium species were grown in Reinforced Clostridial Medium (RCM) at 37° C. anaerobically. Brochothrix thermosphacta fungi and yeasts were grown at 25° C. Fungi were cultured on Malt Extract Agar (MEA, Oxoid).
(§2) An automated Microbiology Reader Bioscreen C was used to measure growth curves of the strains in the presence and absence of APP. The Bioscreen C measures the development of turbidity (i.e. growth) kinetically by vertical photometry in 200 wells of a honeycomb microtitre plate, simultaneously. The system consists of a Bioscreen C analyser, which is an incubator and measurement unit, integrated with a PC, software (BioLink v 5.30), printer and a ‘Honeycomb 2’ cuvette multiwell plate. Growth curve data can be analysed within the BioLink software or exported to programs such as Excel.
(§3) Broth culture media were dispensed in 270 μl volumes into the wells as directed. […] (depending on the micro-organism under investigation) with readings taken every 20 minutes after the trays were shaken. […]

[1] = test system: S cerevisiae var. paradoxus H103; test: Bioscreen growth inhibition test; format: cell-based, Saccharomyces cerevisiae var. paradoxus; settings: APP 213, BS010420, 72 h/25° C.
Protocol: as §1, §2, §3

[2] = test system: Cl. sporogenes (strains 1.221; Campden; ABC20; 4.440); test: Sensitivity testing for Clostridium species in cooked meat medium; format: cell-based, Clostridium sporogenes; settings: highest level tested 2000 ppm APP20010215, anaerobically at 37° C.
Protocol: Stock solutions of APP215 (0.5, 1 and 2%) were prepared and filter-sterilised. Cooked meat medium (CMM, Oxoid) was prepared by distributing 1 g of the medium to individual test tubes, which were then filled with 8.9 ml water. After autoclaving 100 μl of the APP stock solutions were added, to give final concentrations of 0, 500, […] and 2000 ppm APP. The tests were inoculated with […] of Clostridium spores, to give an inoculum level of ca. 10 cfu/ml. The tubes were overlaid with 3 ml of 2% agar to maintain anaerobicity. The tests were incubated at 37° C., and examined daily for signs of growth (turbidity, gas production).

B. cereus 204 [3] = test: Chicken soup trial at 20° C.; format: cell-based, Bacillus cereus; settings: chicken soup at 20° C., TCSM010430, APP20010213
Excerpt: A local supermarket brand of cream of chicken soup was used as a model food system. 600 g packs were purchased from the local supermarket. This was a ‘fresh home-made type’ of soup that was stored in the chill cabinet, with a short shelf life. It was chosen because it is a rich, nutritious food system containing a range of food components including meat, dairy and vegetable.
Ingredients were labelled as: chicken stock (water, duck fat, chicken, salt, flavourings, yeast extracts, pork gelatine, glucose syrup, vegetable concentrate, milk protein, sugar, malto-dextrin, vegetable oil, citric acid, lactose, chicken fat), ilk, chicken (9%), cream (8%), onion, potato, vegetable oil, modified maize starch, wheat flour, lemon juice, salt, white pepper. pH 5.912. Protein: 3.3%; carbohydrate: 4.7%; fat: 7.2%; fibre: 0.2%; sodium: 0.1%
For the test the soup was mixed 2:1 in water (to facilitate sampling and mixing) and sterilised by autoclaving at 121° C. for 15 minutes. For each experiment the pH of the soup was recorded; this was between pH 5.79-5.88.
For TCS010430/20 (incubated at 20° C.) samples were prepared in 18.8 g quantities, to which 1 g of a suitable filter-sterilised APP stock solution was added and an appropriately diluted 0.2 ml inoculum. Great care was again taken to ensure homogeneous distribution of the APP and micro-organisms. This test was sampled by viable count test on a daily basis.

B. cereus 204 [4] = test: Test in cooked sausage meat slurry; format: cell-based, Bacillus cereus
Excerpt: 500 g of bologna sausage meat mixture was mixed with 500 g Brain Heart Infusion broth (BHIB) to make a homogeneous slurry. The bologna sausage meat mix comprised (g per kg): lean beef 320; lean pork 202; lard 250; water 40; glucose 5; starch 155; spice mix 3.75; sodium glutamate 0.5; sodium erythorbate 0.545; sodium di-phosphate 3; NaCl 20; sodium nitrite 0.15. 200 g samples of the meat slurry were autoclaved. While the meat was still warm it was re-mixed thoroughly. When the meat had cooled it was inoculated with 2 ml of 10^5 cfu/ml spore or cell suspension, and re-mixed again. Each inoculated meat sample was divided into 3×50 g samples, and 1 ml of either SDW, 2.5% or 5% APP solution (batch number APP 20010215) was added to prepare meat samples containing 0, 500 and 1000 ppm APP. The meat slurry was again shaken thoroughly to ensure even mixing, an initial viable count was taken and the samples incubated at 8° C. Samples were taken at twice-weekly intervals. The pH of the sausage meat slurry was 6.2.

B. cereus 204 [5] = test: Test in cooked minced beef slurry; format: cell-based, Bacillus cereus; settings: minced beef slurry at 8° C., pH 6.24, TCM010619
Protocol: (§4) 1 kg of minced beef, purchased from the local butcher, was mixed with 1 litre of BHI. 200 g portion of this meat slurry was autoclaved. When the meat had cooled, the pH was recorded (pH 6.24), and each pot was inoculated with 2.0 ml of 10^5 spores or cells and the meat re-mixed thoroughly. Each inoculated 200 g pot was distributed as 3×50 g portions. To each pot 1 ml of SDW, 5% or 10% APP (Batch No. APP20010215) was added, and the meat was again mixed thoroughly. An initial viable count was performed, the meat was incubated at 8° C. and sampled twice weekly. The pH of the cooked minced beef slurry was 6.24.

Ps. fluorescens 3756 = test: Test in cooked minced beef slurry; format: cell-based, Pseudomonas fluorescens
Protocol: as §4

## O=C1CC(CO)OC=C1O (stereo not drawn) [APP, Ascopyrone P]
Y. enterocolitica S16
  APP level causing total inhibition: 2000 ppm
[1]
  APP level causing significant inhibition: 2000
  APP level causing total inhibition: >4000
[2]
  Growth inhibition: No growth inhibition
B. cereus 204 [3]; 500 ppm
  Effect on growth: No significant effect with 500 ppm
B. cereus 204 [3]; 1000 ppm
  Effect on growth: Extension of lag with 1000 ppm
B. cereus 204 [3]; 2000 ppm
  Total inhibition for: Total inhibition by 2000 ppm for >42 days.
B. cereus 204 [4]; 1000 ppm, cooked sausage meat slurry at 8° C., TSM010605, controls 5 d
  10^6 reached at: 7 d
B. cereus 204 [4]; 1000 ppm, cooked sausage meat slurry at 8° C., pH 6.2, TSM010605
  Effect on growth: No total inhibition
B. cereus 204 [4]; Cooked sausage meat slurry at 8° C. pH 6.2, (1000)
  Partial inhibition (effect on growth of target organism by APP): B. cereus (1000)
B. cereus 204 [5]; 1000 ppm
  Effect on growth: 1000 ppm extended lag phase.
B. cereus 204 [5]; 2000 ppm
  Growth to 10^6 delayed by: 2000 ppm delayed growth to 10^6 by 7 d.
Ps. fluorescens 3756; 1000 ppm, minced beef slurry at 8° C., pH 6.24, TCM010619
  Growth delayed by: 1000 ppm delayed growth by 17 d
Ps. fluorescens 3756; 2000 ppm, minced beef slurry at 8° C., pH 6.24, TCM010619
  Total inhibition for: Total inhibition by 2000 ppm for 27 d
Ps. fluorescens 3756; Cooked minced beef slurry at 8° C. pH 6.24
  Total inhibition (effect on growth of target organism by 2000 ppm APP): Ps. fluorescens
